Entries after “also recorded” stand apart in the source; their conditions may differ.
What was measured:
[1] = system: patients with recurrent ovarian cancer receiving gemcitabine and a platin; assay: Phase 2 study: adverse events / safety analysis; format: in vivo, human
Excerpt: (§1) Following Institutional Review Board protocol approval and patient signature of an informed consent form, eligible patients were randomized in a 1:1:1 ratio to receive 100 mcg/kg/day TXA127, 300 mcg/kg/day TXA127, or placebo with gemcitabine plus carboplatin or cisplatin. The randomization was stratified by the patients' intended chemotherapy regimen (see below). The Investigator, patient, and Sponsor were blinded to the treatment assignment. Treatment consisted of up to six consecutive 21-day cycles of one of the following chemotherapy regimens:
(§2) Regimen A • Intravenous cisplatin therapy at a dose between 30 and 50 mg/m^2 (inclusive) given on Day 1 of the cycle • Intravenous gemcitabine at a dose of 800 mg/m^2 given on Day 1 after cisplatin and on Day 8 of the cycle • Regimen B • Intravenous gemcitabine at a dose of 1,000 mg/m^2 given on Days 1 and 8 of the cycle • Intravenous carboplatin AUC range of 4-6 given on Day 1 of the cycle after gemcitabine
(§3) Study drug (TXA127 or placebo) was administered subcutaneously during each treatment cycle once daily for 5 consecutive days following the first chemotherapy agent (Days 2-6) and for 7 consecutive days following the second chemotherapy agent (Days 9-15). At Baseline, End-of-Treatment and weekly throughout each treatment cycle, blood specimens were collected for determination of hematologic variables. Hematologic responses were evaluated based on the National Cancer Institute Common Terminology Criteria for Adverse Events (NCl-CTCAE), Version 3.0.
Thirty-two patients who underwent randomization were included in the efficacy analysis according to their randomly assigned treatment group (intention-to-treat principle). Two additional patients were excluded from this analysis: one patient treated with 100 mcg/kg TXA127 was excluded due to consent withdrawal and one patient treated with 300 mcg/kg TXA127 was excluded due to disease progression. Both patients initiated a single cycle of chemotherapy and had no study drug-related adverse events. All patients were included in the safety analysis.

[2] = system: patients with recurrent ovarian cancer receiving gemcitabine and a platin; assay: Phase 2 study: pharmacodynamic effects on peripheral platelet counts and ANC; format: in vivo, human
Excerpt: as §1, §2, §3
The following parameters were evaluated to assess the pharmacodynamic effects of TXA127 on peripheral platelet counts: nadir platelet count, maximal platelet count, and maximum percentage increase and decrease from baseline.

maximal percentage decrease in ANC post-baseline ([2]; 100 mcg/kg TXA127): 85%
maximal percentage decrease in ANC post-baseline ([2]; 300 mcg/kg TXA127): 78%
Compound: CC[C@H](C)[C@H](NC(=O)[C@H](Cc1ccc(O)cc1)NC(=O)[C@@H](NC(=O)[C@H](CCCNC(=N)N)NC(=O)[C@@H](N)CC(=O)O)C(C)C)C(=O)N[C@@H](Cc1c[nH]cn1)C(=O)N1CCC[C@H]1C(=O)O [TXA127, Asp-Arg-Val-Tyr-Ile-His-Pro]
Frequency of Adverse Events: Abdominal Distension ([1]; 100 mcg group (11 patients)): 1
Frequency of Adverse Events: Abdominal Pain ([1]; 100 mcg group (11 patients)): 4
Frequency of Adverse Events: Anaemia ([1]; 100 mcg group (11 patients)): 4
Frequency of Adverse Events: Arthralgia ([1]; 100 mcg group (11 patients)): 1
Frequency of Adverse Events: Back Pain ([1]; 100 mcg group (11 patients)): 5
Frequency of Adverse Events: Constipation ([1]; 100 mcg group (11 patients)): 7
Frequency of Adverse Events: Cough ([1]; 100 mcg group (11 patients)): 0
Frequency of Adverse Events: Decreased Appetite ([1]; 100 mcg group (11 patients)): 3
Frequency of Adverse Events: Dizziness ([1]; 100 mcg group (11 patients)): 3
Frequency of Adverse Events: Dyspepsia ([1]; 100 mcg group (11 patients)): 4
Frequency of Adverse Events: Dyspnea ([1]; 100 mcg group (11 patients)): 0
Frequency of Adverse Events: Dysuria ([1]; 100 mcg group (11 patients)): 2
Frequency of Adverse Events: Epistaxis ([1]; 100 mcg group (11 patients)): 0
Frequency of Adverse Events: Fatigue ([1]; 100 mcg group (11 patients)): 6
Frequency of Adverse Events: Headache ([1]; 100 mcg group (11 patients)): 5
Frequency of Adverse Events: Hypersensitivity ([1]; 100 mcg group (11 patients)): 1
Frequency of Adverse Events: Leukopenia ([1]; 100 mcg group (11 patients)): 3
Frequency of Adverse Events: Nausea ([1]; 100 mcg group (11 patients)): 7
Frequency of Adverse Events: Neutropenia ([1]; 100 mcg group (11 patients)): 5
Frequency of Adverse Events: Oropharyngeal Pain ([1]; 100 mcg group (11 patients)): 1
Frequency of Adverse Events: Pyrexia ([1]; 100 mcg group (11 patients)): 3
Frequency of Adverse Events: Rash ([1]; 100 mcg group (11 patients)): 1
Frequency of Adverse Events: Thrombocytopenia ([1]; 100 mcg group (11 patients)): 5
Frequency of Adverse Events: Vomiting ([1]; 100 mcg group (11 patients)): 4
thrombocytosis following treatment ([1]; 100 mcg/kg TXA127): One patient experienced thrombocytosis
patients who discontinued study drug due to a treatment-emergent adverse event ([1]; 100 mcg/kg group): Two
Frequency of Adverse Events: Abdominal Distension ([1]; 300 mcg group (13 patients)): 4
Frequency of Adverse Events: Abdominal Pain ([1]; 300 mcg group (13 patients)): 1
Frequency of Adverse Events: Anaemia ([1]; 300 mcg group (13 patients)): 5
Frequency of Adverse Events: Arthralgia ([1]; 300 mcg group (13 patients)): 1
Frequency of Adverse Events: Back Pain ([1]; 300 mcg group (13 patients)): 5
Frequency of Adverse Events: Constipation ([1]; 300 mcg group (13 patients)): 5
Frequency of Adverse Events: Cough ([1]; 300 mcg group (13 patients)): 2
Frequency of Adverse Events: Decreased Appetite ([1]; 300 mcg group (13 patients)): 0
Frequency of Adverse Events: Dizziness ([1]; 300 mcg group (13 patients)): 3
Frequency of Adverse Events: Dyspepsia ([1]; 300 mcg group (13 patients)): 2
Frequency of Adverse Events: Dyspnea ([1]; 300 mcg group (13 patients)): 5
Frequency of Adverse Events: Dysuria ([1]; 300 mcg group (13 patients)): 1
Frequency of Adverse Events: Epistaxis ([1]; 300 mcg group (13 patients)): 1
Frequency of Adverse Events: Fatigue ([1]; 300 mcg group (13 patients)): 7
Frequency of Adverse Events: Headache ([1]; 300 mcg group (13 patients)): 5
Frequency of Adverse Events: Hypersensitivity ([1]; 300 mcg group (13 patients)): 2
Frequency of Adverse Events: Leukopenia ([1]; 300 mcg group (13 patients)): 2
Frequency of Adverse Events: Nausea ([1]; 300 mcg group (13 patients)): 9
Frequency of Adverse Events: Neutropenia ([1]; 300 mcg group (13 patients)): 8
Frequency of Adverse Events: Oropharyngeal Pain ([1]; 300 mcg group (13 patients)): 1
Frequency of Adverse Events: Pyrexia ([1]; 300 mcg group (13 patients)): 2
Frequency of Adverse Events: Rash ([1]; 300 mcg group (13 patients)): 5
Frequency of Adverse Events: Thrombocytopenia ([1]; 300 mcg group (13 patients)): 2
Frequency of Adverse Events: Vomiting ([1]; 300 mcg group (13 patients)): 5
patients who discontinued study drug due to a treatment-emergent adverse event ([1]; 300 mcg/kg group): Two
safety with these chemotherapy regimens ([1]; up to 6 cycles of gemcitabine + platin): The safety of TXA127 was demonstrated
ANC relative to placebo (in words) ([2]; 100 mcg/kg TXA127): decrease in the nadir ANC relative to placebo; also recorded: significant reduction in ANC
